{"source": "ChEMBL document CHEMBL1926646", "about": "(Bioorg Med Chem, 2011)", "key": {"[1]": {"tested_on": "Rattus norvegicus", "assay": "AUC in Sprague-Dawley rat at 10 mg/kg, po", "assay_type": "ADME, organism-based, Plasma", "set-up": "dose 10 mg/kg, route oral", "conditions": "in vivo"}, "[2]": {"tested_on": "Rattus norvegicus", "assay": "Inhibition of plasma DPP-4 activity in Wistar/ST rat at 10 mg/kg, po pretreated 30 mins before glucose challenge measured within 30 mins", "assay_type": "functional"}, "[3]": {"assay": "Total clearance in Beagle dog at 0.2 mg/kg, iv", "assay_type": "ADME, organism-based, Canis lupus familiaris", "set-up": "dose 0.2 mg/kg, route intravenous", "conditions": "in vivo"}, "[4]": {"assay": "Terminal half life in Sprague-Dawley rat at 10 mg/kg, po", "assay_type": "ADME, organism-based", "set-up": "dose 10 mg/kg, route oral", "conditions": "in vivo, read-out: beta t1/2 (converted)"}, "[5]": {"assay": "Cmax in Sprague-Dawley rat at 3 mg/kg, po", "assay_type": "ADME, organism-based", "set-up": "dose 3 mg/kg, route oral", "conditions": "in vivo"}, "[6]": {"assay": "Terminal half life in Beagle dog at 0.5 mg/kg, po", "assay_type": "ADME, organism-based, Canis lupus familiaris", "set-up": "dose 0.5 mg/kg, route oral", "conditions": "in vivo, read-out: beta t1/2 (converted)"}, "[7]": {"assay": "Plasma protein binding in rat at 20 ng/ml after 0.5 hrs by LC-MS/MS analysis", "assay_type": "ADME, cell-free", "conditions": "read-out: PPB (converted)"}, "[8]": {"assay": "Tmax in Beagle dog at 0.5 mg/kg, po", "assay_type": "ADME, organism-based, Canis lupus familiaris", "set-up": "dose 0.5 mg/kg, route oral", "conditions": "in vivo"}, "[9]": {"assay": "Oral bioavailability in Sprague-Dawley rat at 10 mg/kg", "assay_type": "ADME, organism-based", "conditions": "in vivo"}, "[10]": {"assay": "Total clearance in Sprague-Dawley rat at 3 mg/kg, iv", "assay_type": "ADME, organism-based", "set-up": "dose 3 mg/kg, route intravenous", "conditions": "in vivo"}, "[11]": {"assay": "Oral bioavailability in Beagle dog at 0.5 mg/kg", "assay_type": "ADME, organism-based, Canis lupus familiaris", "conditions": "in vivo"}, "[12]": {"tested_on": "Rattus norvegicus", "assay": "Volume of distribution at steady state in Sprague-Dawley rat at 3 mg/kg, iv", "assay_type": "ADME, organism-based", "set-up": "dose 3 mg/kg, route intravenous", "conditions": "in vivo"}, "[13]": {"assay": "Tmax in Sprague-Dawley rat at 3 mg/kg, po", "assay_type": "ADME, organism-based", "set-up": "dose 3 mg/kg, route oral", "conditions": "in vivo"}, "[14]": {"assay": "Cmax in Beagle dog at 0.5 mg/kg, po", "assay_type": "ADME, organism-based, Canis lupus familiaris", "set-up": "dose 0.5 mg/kg, route oral", "conditions": "in vivo"}, "[15]": {"tested_on": "Canis familiaris", "assay": "Volume of distribution at steady state in Beagle dog at 0.2 mg/kg, iv", "assay_type": "ADME, organism-based, Canis lupus familiaris", "set-up": "dose 0.2 mg/kg, route intravenous", "conditions": "in vivo"}, "[16]": {"assay": "Cmax in Sprague-Dawley rat at 10 mg/kg, po", "assay_type": "ADME, organism-based", "set-up": "dose 10 mg/kg, route oral", "conditions": "in vivo"}, "[17]": {"assay": "Tmax in Sprague-Dawley rat at 10 mg/kg, po", "assay_type": "ADME, organism-based", "set-up": "dose 10 mg/kg, route oral", "conditions": "in vivo"}, "[18]": {"assay": "Plasma protein binding in dog at 20 ng/ml after 0.5 hrs by LC-MS/MS analysis", "assay_type": "ADME, cell-free, Canis lupus familiaris", "conditions": "read-out: PPB (converted)"}, "[19]": {"assay": "Drug level in Sprague-Dawley rat plasma at 3 mg/kg at Tmax", "assay_type": "ADME, organism-based", "set-up": "dose 3 mg/kg", "conditions": "read-out: Drug uptake"}, "[20]": {"assay": "Plasma protein binding in human at 2000 ng/ml after 0.5 hrs by LC-MS/MS analysis", "assay_type": "ADME, cell-free", "conditions": "read-out: PPB (converted)"}, "[21]": {"tested_on": "Canis familiaris", "assay": "AUC in Beagle dog at 0.5 mg/kg, po", "assay_type": "ADME, organism-based, Canis lupus familiaris, Plasma", "set-up": "dose 0.5 mg/kg, route oral", "conditions": "in vivo"}, "[22]": {"assay": "Plasma protein binding in human at 20 ng/ml after 0.5 hrs by LC-MS/MS analysis", "assay_type": "ADME, cell-free", "conditions": "read-out: PPB (converted)"}, "[23]": {"assay": "Plasma protein binding in dog at 2000 ng/ml after 0.5 hrs by LC-MS/MS analysis", "assay_type": "ADME, cell-free, Canis lupus familiaris", "conditions": "read-out: PPB (converted)"}, "[24]": {"tested_on": "Rattus norvegicus", "assay": "Inhibition of plasma DPP-4 activity in orally dosed Wistar/ST rat pretreated 30 mins before glucose challenge measured for 2 hrs during oral glucose tolerance test", "assay_type": "functional, organism-based"}, "[25]": {"tested_on": "Rattus norvegicus", "assay": "Antidiabetic activity in Wistar/ST rat plasma assessed as reduction in glucose AUC (0 to 60 mins) at 10 mg/kg, po pretreated 30 mins before glucose challenge measured for 2 hrs by oral glucose tolerance test", "assay_type": "functional, organism-based", "set-up": "dose 10 mg/kg"}, "[26]": {"tested_on": "Rattus norvegicus", "assay": "Inhibition of plasma DPP-4 activity in Wistar/ST rat at 3 mg/kg, po pretreated 30 mins before glucose challenge measured for 2 hrs during oral glucose tolerance test", "assay_type": "functional"}, "[27]": {"assay": "Plasma protein binding in rat at 2000 ng/ml after 0.5 hrs by LC-MS/MS analysis", "assay_type": "ADME, cell-free", "conditions": "read-out: PPB (converted)"}, "[28]": {"molecular_target": "Dipeptidyl peptidase 8 (Homo sapiens, UniProt Q6V1X1)", "sequence (Q6V1X1 whole entry)": "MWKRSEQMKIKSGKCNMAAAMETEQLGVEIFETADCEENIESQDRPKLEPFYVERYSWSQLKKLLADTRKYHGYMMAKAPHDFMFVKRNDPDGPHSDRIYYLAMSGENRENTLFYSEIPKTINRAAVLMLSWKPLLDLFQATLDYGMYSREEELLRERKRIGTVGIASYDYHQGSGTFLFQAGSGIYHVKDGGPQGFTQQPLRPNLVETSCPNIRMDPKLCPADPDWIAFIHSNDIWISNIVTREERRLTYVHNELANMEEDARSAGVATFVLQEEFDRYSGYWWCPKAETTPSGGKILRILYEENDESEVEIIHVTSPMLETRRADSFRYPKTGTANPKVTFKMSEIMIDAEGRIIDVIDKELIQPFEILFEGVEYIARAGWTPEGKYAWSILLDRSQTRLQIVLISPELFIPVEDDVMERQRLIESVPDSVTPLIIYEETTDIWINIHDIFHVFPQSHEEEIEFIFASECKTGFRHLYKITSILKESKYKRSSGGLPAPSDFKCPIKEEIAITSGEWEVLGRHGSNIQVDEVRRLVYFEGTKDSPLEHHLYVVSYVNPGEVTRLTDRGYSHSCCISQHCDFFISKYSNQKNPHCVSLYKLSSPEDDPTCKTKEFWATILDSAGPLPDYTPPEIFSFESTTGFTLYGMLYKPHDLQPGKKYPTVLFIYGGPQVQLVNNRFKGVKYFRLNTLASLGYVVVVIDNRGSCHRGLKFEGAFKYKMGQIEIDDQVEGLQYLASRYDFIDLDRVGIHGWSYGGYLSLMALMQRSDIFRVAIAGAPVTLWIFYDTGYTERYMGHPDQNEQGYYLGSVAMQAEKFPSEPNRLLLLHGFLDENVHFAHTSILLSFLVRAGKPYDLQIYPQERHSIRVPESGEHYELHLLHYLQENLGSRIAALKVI", "assay": "Inhibition of human recombinant DPP-8 expressed in Sf9 cells using H-Gly-Pro-AMC as substrate preincubated for 30 mins before substrate addition measured after 20 mins by fluorescence assay"}, "[29]": {"assay": "Oral bioavailability in Sprague-Dawley rat at 5 mg/kg", "assay_type": "ADME, organism-based", "conditions": "in vivo"}}, "note": "Calls of active or inactive are those of the source. The calls are words filed in the database; no cut-off is given here."}
{"smiles": "Cc1cc2ncc(C(=O)NCC(C)(C)NCC(=O)N3CCC[C@H]3C#N)c(C)n2n1.Cl", "values": [{"measurement": "AUC", "setting": "[1]", "value": 1110, "unit": "ng·h/mL"}, {"measurement": "inhibition in vivo at 10 mg/kg", "setting": "[2]", "value": 90, "unit": "%"}, {"measurement": "clearance", "setting": "[3]", "value": 10.3, "unit": "mL/min/kg"}, {"measurement": "half-life", "setting": "[4]", "value": 1.9, "unit": "h"}, {"measurement": "Cmax", "setting": "[5]", "value": 68, "unit": "ng/mL"}, {"measurement": "half-life", "setting": "[6]", "value": 1.3, "unit": "h"}, {"measurement": "fraction unbound at 0.5 h, 20 ng/ml", "setting": "[7]", "value": 0.779}, {"measurement": "Tmax", "setting": "[8]", "value": 1, "unit": "h"}, {"measurement": "bioavailability", "setting": "[9]", "value": 27, "unit": "%"}, {"measurement": "clearance", "setting": "[10]", "value": 37.2, "unit": "mL/min/kg"}, {"measurement": "bioavailability", "setting": "[11]", "value": 98, "unit": "%"}, {"measurement": "Vdss", "setting": "[12]", "value": 1.61, "unit": "L/kg"}, {"measurement": "Tmax", "setting": "[13]", "value": 0.25, "unit": "h"}, {"measurement": "Cmax", "setting": "[14]", "value": 282, "unit": "ng/mL"}, {"measurement": "Vdss", "setting": "[15]", "value": 0.75, "unit": "L/kg"}, {"measurement": "Cmax", "setting": "[16]", "value": 747, "unit": "ng/mL"}, {"measurement": "Tmax", "setting": "[17]", "value": 0.25, "unit": "h"}, {"measurement": "fraction unbound at 0.5 h, 20 ng/ml", "setting": "[18]", "value": 0.775}, {"measurement": "Cmax", "setting": "[19]", "value": 54, "unit": "nM"}, {"measurement": "fraction unbound at 0.5 h, 2000 ng/ml", "setting": "[20]", "value": 0.784}, {"measurement": "AUC", "setting": "[21]", "value": 6390, "unit": "ng·h/mL"}, {"measurement": "fraction unbound at 0.5 h, 20 ng/ml", "setting": "[22]", "value": 0.811}, {"measurement": "fraction unbound at 0.5 h, 2000 ng/ml", "setting": "[23]", "value": 0.801}, {"measurement": "inhibition", "setting": "[24]", "value": "Dose-dependent effect"}, {"measurement": "Activity", "setting": "[25]", "value": "Active"}, {"measurement": "inhibition in vivo at 3 mg/kg", "setting": "[26]", "value": 60, "unit": "%"}, {"measurement": "fraction unbound at 0.5 h, 2000 ng/ml", "setting": "[27]", "value": 0.821}]}
{"smiles": "Cc1cc2ncc(C(=O)NCC(C)(C)NCC(=O)N3CCC[C@H]3C#N)c(C(F)(F)F)n2n1", "values": [{"measurement": "IC50", "setting": "[28]", "value": "> 100", "unit": "µM"}]}
{"smiles": "Cc1cc2ncc(C(=O)NCC(C)(C)NCC(=O)N3CCC[C@H]3C#N)c(O)n2n1.Cl", "values": [{"measurement": "bioavailability", "setting": "[29]", "value": 4.1, "unit": "%"}]}
{"smiles": "Cc1c(C(=O)NCC(C)(C)NCC(=O)N2CCC[C@H]2C#N)cnc2cc(C(C)(C)C)nn12", "values": [{"measurement": "IC50", "setting": "[28]", "value": "> 100", "unit": "µM"}]}
